For one data set, the target named is T1, recombinant Lck kinase (Homo sapiens, UniProt P06239).
T1 construct: purchased EnzoLifeSciences
It is filed as biochemical. The settings on record: Lck 3.6 mU/well, 1 μM LLD-EPEGIYGVLF substrate; read-out: ATP Km. On the procedure:
Enzyme: Lck (p56Ick) (EnzoLifeSciences, 18 U/m1), 3.6 mU/well
Enzyme (3.6 mU in 5 μl buffer A) was then added to each well. […] The average lifetime values were converted to pmol phosphopeptide from a standard curve and plots of initial rates of reaction dependent on ATP concentration were used to determine the ATP Km value by non-linear regression fitting using GraphPad Prism (see FIG. 10).

Data set [1] is described as follows: Fluorescence lifetimes of acridine derivatives by TCSPC (Table 1). Format: physicochemical. As to conditions: excitation 405 nm. On the procedure: Fluorescence lifetimes were determined by time-correlated single photon counting (TCSPC) acquisition using an Edinburgh Instruments Nanotaurus fluorescence lifetime platereader, using excitation laser 405 nm and either a 438 nm band pass, 450 nm band pass or 473 nm long pass emission filter for detection.

The conditions of data set [2]: reported, Tanaka et al. 2001; cited from earlier work.
Data set [3] is described as follows: pH stability of fluorescence lifetime. Format: physicochemical. The settings on record: 1 μM in 20 mM sodium phosphate buffer. The protocol:
1 μM solutions of 9,10-dimethylacridin-10-ium methyl sulfate in 20 mM sodium phosphate buffer were prepared using 0.2 M monobasic sodium phosphate and 0.2 M dibasic sodium phosphate buffer mixtures, 0.1 M HCl solution was used to adust the pH to <6 and 0.1 M NaOH solution was used to adjust the pH to >8;
An important criteria of fluorescence dyes suitable for use in biochemical and cell-based assays is the advantageousness of the fluorescence lifetime being independent of pH in the physiological range 5 to 9.

Data set [4] is described as follows: Fluorescence analysis of 9,10-dimethylacridin-10-ium methyl sulfate (lifetime decay). Format: physicochemical. The protocol:
Measurements were performed in 10 mM PBS pH 7.4, excitation wavelength 350 nm and emission wavelength 490 nm for steady state, and excitation wavelength 405 nm and emission wavelength 473 nm long pass filter for fluorescence lifetime;
Steady state measurements were performed on an Edinburgh Instruments FLS920 steady state fluorimeter, with excitation wavelength of 350 nm and emission wavelength of 490 nm. Fluorescence lifetimes were determined by time-correlated single photon counting (TCSPC) acquisition using an Edinburgh Instruments Nanotaurus fluorescence lifetime platereader, using excitation laser 405 nm and a 473 nm long pass emission filter for detection.
The fluorescence excitation and emission spectra were measured at 1 μM 9,10-dimethylacridin-10-ium methyl sulfate concentration in phosphate buffered saline (PBS) solution pH 7.4. The fluorescence excitation and emission spectra, and fluorescence lifetime decay curve are shown in FIG. 1(a) and FIG. 1(b) respectively. 9,10-Dimethylacridin-10-ium methyl sulfate has an advantageously long fluorescence lifetime of circa 25-30 ns. In addition, the magnitude of the fluorescence lifetime was maintained across the three buffer systems tested (see Table 1, entry 6).

Data set [5] can be described thus: Fluorescence emission profile as a function of pH. It is filed as physicochemical. The settings on record: excitation 405 nm. On the procedure:
The fluorescence emission profile was measured as a function of pH upon excitation at 405 nm (FIG. 3).

SMILES strings stand for the structures. Values joined by “and” are separate entries in the source; they are usually repeats but may differ in a detail not shown here. Equal values may be shown once. Where a name gives a salt, the structure may show the parent alone.

The values that follow come from patent US20140349297A1, “FLUORESCENT DYES BASED ON ACRIDINE AND ACRIDINIUM DERIVATIVES” (Almac Sciences (Scotland) Limited, priority 2011, published 2014).

T1 sequence (P06239 whole entry, species assumed): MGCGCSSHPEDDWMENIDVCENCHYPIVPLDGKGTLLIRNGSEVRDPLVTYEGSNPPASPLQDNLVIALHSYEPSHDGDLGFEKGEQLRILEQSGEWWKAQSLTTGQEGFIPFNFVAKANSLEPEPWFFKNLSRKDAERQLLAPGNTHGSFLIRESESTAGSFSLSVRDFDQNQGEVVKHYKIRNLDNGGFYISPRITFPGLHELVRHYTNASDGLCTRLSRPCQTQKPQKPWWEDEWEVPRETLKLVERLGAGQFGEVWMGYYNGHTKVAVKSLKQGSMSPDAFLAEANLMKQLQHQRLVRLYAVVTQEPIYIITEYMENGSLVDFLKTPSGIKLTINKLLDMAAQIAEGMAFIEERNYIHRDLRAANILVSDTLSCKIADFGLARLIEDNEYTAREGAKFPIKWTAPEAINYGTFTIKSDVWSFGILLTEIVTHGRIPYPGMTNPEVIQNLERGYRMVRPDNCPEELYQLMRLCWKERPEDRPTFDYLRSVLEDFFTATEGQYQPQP

Consider `Nc1ncnc2c1ncn2[C@@H]1O[C@H](COP(=O)(O)OP(=O)(O)OP(=O)(O)O)[C@@H](O)[C@H]1O` [ATP], for which, at recombinant Lck kinase, the Michaelis-Menten constant (Km) came out at 36.4 µM.
Turning to `Nc1c2ccccc2nc2ccccc12` [Entry 1], the “Fluorescence Lifetime” value in data set [1] (1 μM in 50 mM AcOH solution) came to 15.6 ns; in data set [1] (1 μM in PBS) it was 15.6 ns; in data set [1] (1 μM in water), 15.7 ns.
Regarding `C[n+]1c2ccccc2c(N)c2ccccc21.[Cl-]` [Entry 2], the figures for the “Fluorescence Lifetime” value in data set [1] (1 μM in 50 mM AcOH solution), in data set [1] (1 μM in PBS) and in data set [1] (1 μM in water) were 16.4 ns, 16.3 ns and 16.4 ns, respectively.
Turning to `c1ccc2nc3ccccc3cc2c1` [Entry 3], the results for the “Fluorescence Lifetime” value in data set [1] (1 μM in 50 mM AcOH solution), in data set [1] (1 μM in PBS) and in data set [1] (1 μM in water) were 29.4 ns, 18.8 ns and 10.5 ns, respectively.
The like results for `Cc1c2ccccc2nc2ccccc12` [Entry 4] were, in that order, 29.1 ns, 11.7 ns and 29.1 ns.
In the case of `C[n+]1c2ccccc2cc2ccccc21` [Entry 5], the entries for the “Fluorescence Lifetime” value in data set [1] (1 μM in 50 mM AcOH solution), in data set [1] (1 μM in PBS) and in data set [1] (1 μM in water) were 32.1 ns, 31.9 ns and 14.1 ns, respectively.
Regarding `Cc1c2ccccc2[n+](C)c2ccccc12` [Entry 6, 9,10-dimethylacridin-10-ium methyl sulfate], the “Fluorescence Lifetime” value in data set [1] (1 μM in 50 mM AcOH solution) is 29.8 ns; in data set [1] (1 μM in PBS), 26.2 ns; in data set [1] (1 μM in water) it was 30.0 ns; in data set [4] (circa, maintained across the three buffer systems tested) it was 25-30 ns. Besides, in data set [2], the “pKa of methyl protons at the 9-position” value is “akin to acetic acid”. Moreover, the “fluorescence lifetime as a function of pH” value in data set [3] is reported as “stable across the pH range 3 to 10”. For the same molecule, the “fluorescence lifetime (decay curve, FIG. 1b)” value in data set [4] (10 mM PBS pH 7.4, excitation 405 nm, 473 nm long pass emission filter) turned out to be 26.2 ns. The emission maximum was 425 nm and 450 nm in data set [5] (solutions >pH 10); 460 nm and 490 nm in data set [5] (solutions at pH 3 to 10).
